Data taken from patent US20260176279A1, “DUAL RAF AND TUBULIN INHIBITORS AND METHODS OF USE THEREOF” (Deciphera Pharmaceuticals, LLC, priority 2023, published 2026).
Like-named read-outs stand apart in the source and are kept apart here. Each block holds one molecule with its values, some of them ahead of it.

Legend:
B-Raf kinase = target: T1, B-Raf kinase (Homo sapiens, UniProt P15056); assay: Biochemical Assay for B-Raf (coupled pyruvate kinase/lactate dehydrogenase assay)
T1 construct: GST (N); purchased Sigma
T1 sequence (P15056 416-766): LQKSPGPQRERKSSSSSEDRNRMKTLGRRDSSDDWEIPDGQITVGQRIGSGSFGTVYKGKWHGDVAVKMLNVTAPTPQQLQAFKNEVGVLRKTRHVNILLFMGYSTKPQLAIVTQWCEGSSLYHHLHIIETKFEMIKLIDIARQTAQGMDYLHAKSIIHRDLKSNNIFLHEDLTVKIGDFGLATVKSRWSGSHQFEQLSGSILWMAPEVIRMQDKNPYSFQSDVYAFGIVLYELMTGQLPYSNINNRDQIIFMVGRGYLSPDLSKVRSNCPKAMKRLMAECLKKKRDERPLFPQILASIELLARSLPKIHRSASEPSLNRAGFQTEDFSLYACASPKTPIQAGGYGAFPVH

C-Raf kinase = target: T2, C-Raf kinase (Homo sapiens, UniProt P04049, Y340D/Y341D); assay: Biochemical Assay for C-Raf (coupled pyruvate kinase/lactate dehydrogenase assay)
T2 construct: C-Raf residues 306-end; Y340D, Y341D with N-; GST (N); purchased Eurofins
T2 sequence (P04049 307-648 Y340D/Y341D): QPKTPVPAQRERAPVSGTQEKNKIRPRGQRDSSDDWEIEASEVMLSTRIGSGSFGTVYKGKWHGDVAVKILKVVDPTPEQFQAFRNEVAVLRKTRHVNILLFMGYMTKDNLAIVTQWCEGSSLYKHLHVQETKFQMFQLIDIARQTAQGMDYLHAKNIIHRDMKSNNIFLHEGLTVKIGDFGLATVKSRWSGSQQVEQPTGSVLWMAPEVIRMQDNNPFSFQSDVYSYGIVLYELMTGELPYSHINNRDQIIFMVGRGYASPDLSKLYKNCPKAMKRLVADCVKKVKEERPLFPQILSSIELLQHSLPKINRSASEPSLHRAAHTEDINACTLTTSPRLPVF

MiaPaca-2 cells = assay: MiaPaca-2 Cell Proliferation Assay; format: cell-based; conditions: Homo sapiens, MIA PaCa-2
Description: MiaPaca-2 cells (catalog #CRL-1420) are obtained from the American Type Culture Collect (ATTC, Manassas, VA). Briefly, cells were grown in DMEM supplemented with 10% characterized fetal bovine serum (Invitrogen, Carlsbad, CA), 2.5% New Zealand sourced horse serum and 1% Penicillin/Streptomycin/L-Glutamine at 37° C., 5% CO2, and 95% humidity. Cells are expanded until reaching 70-95% confluency at which point they are sub-cultured or harvested for assay use. For assays completed in 96-well plates, a serial dilution of test compound is dispensed into a 96-well black clear bottom plate in triplicate. Three thousand cells are added per well in 200 μL complete growth medium in the 96-well plate. Plates are incubated for 67 to 72 h at 37° C., 5% CO2, and 95% humidity. At the end of the incubation, 40 μL of a […] solution of resazurin (Sigma, St. Louis, MO) in PBS is added to each well of the plate and plates are incubated for an additional 5 to 6 hours at 37° C., 5% CO2, and 95% humidity. For 384-well assays, a threefold, 8-point serial dilution of compound was spotted column wise into a 384 well black, clear bottom, tissue culture treated plate using the Beckman Coulter Echo 650. Likewise, a threefold, 8-point serial dilution of cobimetinib was spotted row wise into the 384 well black, clear bottom plate containing compound. DMSO concentration was constant across all wells at 0.4%. Seven hundred fifty cells are added per well in 50 μL complete growth medium in each 384-well plate. Plates are incubated for 67 to 72 h at 37° C., 5% CO2, and 95% humidity. At the end of the incubation, 10 μL of a 440 μM solution of resazurin (Sigma, St. Louis, MO) in PBS is added to each well of the plate and plates are incubated for an additional 4 to 6 h at 37° C., 5% CO2, and 95% humidity. Plates are read on a Synergy2 or equivalent reader (Biotek, Winooski VT) using an excitation of 540 nm and an emission of 600 nm. Data is analyzed using Prism software (Graphpad, San Diego, CA) to calculate IC50 values.

HCT-116 cells = assay: HCT-116 Cell Proliferation Assay; format: cell-based; conditions: Homo sapiens
Description: HCT-116 cells (catalog #CCL-247) are obtained from the American Type Culture Collect (ATCC, Manassas, VA). Briefly, cells are grown in McCoy's 5A supplemented with 10% characterized fetal bovine serum (Invitrogen, Carlsbad, CA) and 1% Penicillin/Streptomycin/L-Glutamine at 37° C., 5% CO2, and 95% humidity. Cells are expanded until reaching 70-95% confluency at which point they are sub-cultured or harvested for assay use. A serial dilution of test compound is dispensed into a 384-well black clear bottom plate in triplicate. 375 cells are added per well in 50 μL complete growth medium in the 384-well plate. Plates are incubated for 67 to 72 h at 37° C., 5% CO2, and 95% humidity. At the end of the incubation, 40 μL of a […] solution of resazurin (Sigma, St. Louis, MO) in PBS is added to each well of the plate and plates are incubated for an additional 4 to 5 hours at 37° C., 5% CO2, and 95% humidity. Plates are read on a Synergy2 or equivalent reader (Biotek, Winooski, VT) using an excitation of 540 nm and an emission of 600 nm. Data is analyzed using Prism software (Graphpad, San Diego, CA) to calculate IC50 values.

HPAF-II cells = assay: HPAF-II Cell Proliferation Assay; format: cell-based; conditions: Homo sapiens
Description: HPAF-II cells (catalog #CRL-1997) are obtained from the American Type Culture Collect (ATCC, Manassas, VA). Briefly, cells are grown in Minimum Essential Media supplemented with 10% characterized fetal bovine serum (Invitrogen, Carlsbad, CA) and 1% Penicillin/Streptomycin/L-Glutamine at 37° C., 5% CO2, and 95% humidity. Cells are expanded until reaching 70-95% confluency at which point they are sub-cultured or harvested for assay use. A serial dilution of test compound is dispensed into a 384-well black clear bottom plate in triplicate. 750 cells are added per well in 50 μL complete growth medium in the 384-well plate. Plates are incubated for 115 to 120 h at 37° C., 5% CO2, and 95% humidity. At the end of the incubation, 40 μL of a […] solution of resazurin (Sigma, St. Louis, MO) in PBS is added to each well of the plate and plates are incubated for an additional 18 to 24 h at 37° C., 5% CO2, and 95% humidity. Plates are read on a Synergy2 or equivalent reader (Biotek, Winooski, VT) using an excitation of 540 nm and an emission of 600 nm. Data is analyzed using Prism software (Graphpad, San Diego, CA) to calculate IC50 values.

tubulin = assay: Cellular Tubulin Polymerization Assay (HCT-116 cells); format: cell-based
[1] = Table 4, read-out: MiaPaca-2 IC50
[2] = HCT-116, Table 4, read-out: HCT-116 IC50
[3] = HPAF-II, Table 4, read-out: HPAF-II IC50
[4] = Table 4, HCT-116 cells, read-out: Tubulin Cellular IC50
[5] = Table 1, inhibition of biochemical activity, read-out: BRAF
[6] = Table 1, inhibition of biochemical activity, read-out: CRAF
[7] = Table 2, inhibition of cell proliferation, read-out: MiaPaca-2
[8] = Table 3, read-out: MiaPaca-2 IC50
[9] = HCT-116, Table 3, read-out: HCT-116 IC50
[10] = Table 2, inhibition of cell proliferation, read-out: HCT-116
[11] = HPAF-II, Table 3, read-out: HPAF-II IC50
[12] = Table 2, inhibition of cell proliferation, read-out: HPAF-II
[13] = Table 3, HCT-116 cells, read-out: Tubulin Cellular IC50

Compound: CNC(=O)c1cc(-c2cc(-c3cc(NC(=O)Nc4ccc(C(F)(F)F)nc4)ccc3C)ccn2)ccn1 [Example 20]
IC50 (B-Raf kinase; [5]): 100 to 500 nM
IC50 (B-Raf kinase; Table 3, read-out: BRAF IC50): 100 to 500 nM
IC50 (C-Raf kinase; [6]): < 100 nM
IC50 (C-Raf kinase; Table 3, read-out: CRAF IC50): < 100 nM
IC50 (MiaPaca-2 cells; [7]): < 100 nM
IC50 (MiaPaca-2 cells; [8]): < 100 nM
IC50 (HCT-116 cells; [9]): < 100 nM
IC50 (HCT-116 cells; [10]): < 100 nM
IC50 (HPAF-II cells; [11]): 100 to 500 nM
IC50 (HPAF-II cells; [12]): 100 to 500 nM
IC50 (tubulin; [13]): < 100 nM

Compound: CNc1cc(-c2cc(-c3cc(NC(=O)Nc4ccc(C(F)(F)F)nc4)ccc3C)ccn2)ccn1 [Example 19]
IC50 (B-Raf kinase; [5]): 100 to 500 nM
IC50 (B-Raf kinase; Table 3, read-out: BRAF IC50): < 100 nM
IC50 (C-Raf kinase; [6]): < 100 nM
IC50 (C-Raf kinase; Table 3, read-out: CRAF IC50): < 100 nM
IC50 (MiaPaca-2 cells; [7]): 100 to 500 nM
IC50 (MiaPaca-2 cells; [8]): 100 to 500 nM
IC50 (HCT-116 cells; [9]): 100 to 500 nM
IC50 (HCT-116 cells; [10]): 100 to 500 nM
IC50 (HPAF-II cells; [11]): 100 to 500 nM
IC50 (HPAF-II cells; [12]): 100 to 500 nM
IC50 (tubulin; [13]): < 100 nM

Compound: CNC(=O)c1cc(-c2cc(-c3cc(NC(=O)Nc4ccnc(C(C)(C)C#N)c4)ccc3C)ccn2)ccn1 [reference compound]
IC50 (MiaPaca-2 cells; [1]): 500 to 1000 nM
IC50 (HCT-116 cells; [2]): 1000 to 10000 nM
IC50 (tubulin; [4]): 1000 to 10000 nM

Compound: CC(=O)Nc1cc(-c2cc(-c3cc(NC(=O)Nc4ccc(C(F)(F)F)cc4)cnc3C)ccn2)ccn1 [reference compound]
IC50 (HCT-116 cells; [2]): 1000 to 10000 nM
IC50 (HPAF-II cells; [3]): 1000 to 10000 nM
IC50 (tubulin; [4]): 1000 to 10000 nM

Compound: Cc1ccc(NC(=O)N2CC[C@@H](CC(F)(F)F)C2)cc1-c1cc(N[C@H](C)CO)nc(N2CCOCC2)c1 [Exarafenib, reference compound]
IC50 (tubulin; read-out: Tubulin Cellular, Table 5, HCT-116 cells): 1000 to 10000 nM

The next lines start with results.

IC50 (B-Raf kinase; Table 4, read-out: BRAF IC50): < 100 nM
IC50 (C-Raf kinase; Table 4, read-out: CRAF IC50): < 100 nM
IC50 (MiaPaca-2 cells; [1]): 1000 to 10000 nM
IC50 (HCT-116 cells; [2]): 1000 to 10000 nM
IC50 (tubulin; [4]): 1000 to 10000 nM
Compound: Cc1cc(F)c(NC(=O)NCCC(C)(C)C)cc1-c1cc(OCCO)nc(N2CCOCC2)c1 [reference compound]
IC50 (HPAF-II cells; [3]): 1000 to 10000 nM

IC50 (MiaPaca-2 cells; [1]): 1000 to 10000 nM
IC50 (HCT-116 cells; [2]): 1000 to 10000 nM
Compound: Cc1ccc(NC(=O)N[C@@H]2CCc3ccccc32)cc1-c1cc(OCCO)nc(N2CCOCC2)c1 [reference compound]
IC50 (HPAF-II cells; [3]): 1000 to 10000 nM

IC50 (MiaPaca-2 cells; [1]): 1000 to 10000 nM
IC50 (HCT-116 cells; [2]): 1000 to 10000 nM
Compound: CNC(=O)c1cc(-c2cnnc(-c3cc(NC(=O)N4CCC(C(C)(C)C)C4)ccc3C)c2)ccn1 (stereo not drawn) [reference compound]
IC50 (HPAF-II cells; [3]): 1000 to 10000 nM

IC50 (HCT-116 cells; [2]): 500 to 1000 nM
Compound: CC(=O)Nc1cc(-c2cc(-c3cc(NC(=O)NC4CCC(F)(F)CC4)c(F)cc3C)cc(OCCO)n2)ccn1 [reference compound]
IC50 (HPAF-II cells; [3]): 500 to 1000 nM

IC50 (HCT-116 cells; [2]): 100 to 500 nM
IC50 (tubulin; [4]): 1000 to 10000 nM
Compound: Cc1ccc(NC(=O)Nc2cccc(C(F)(F)F)c2)cc1-c1cc(OCCO)nc(N2CCOCC2)c1 [reference compound]
